Results published in PubChem BioAssay AID1919013 (Molecular Pharmacology Branch, DTP, NCI, 2023).

System: LG0703-F498-PDC complex spheroid growth
Experiment: Anticancer human tumor LG0703-F498-PDC patient-derived lung adenocarcinoma cell line growth inhibition [AhR]
Conditions: for IC50: curve of first compound; for viability, T/C: stronger effect = lower value
Summary of the method: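 Complex tumor spheroids co-cultured with HUVEC and human MSC stroma; AhR antagonists tested in combination with standard-of-care and investigational agents. Top concentration at or near clinical Cmax (else 10 microM), half-log dilutions; growth expressed as percent test/control.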

[1] = second compound 0.1 µM, first compound 0.00949 µM
[2] = second compound 0.1 µM, first compound 0.03 µM
[3] = second compound 0.1 µM, first compound 0.0949 µM
[4] = second compound 0.1 µM, first compound 0.3 µM
[5] = second compound 0.1 µM, first compound 0.949 µM
[6] = second compound 0.1 µM, first compound 3 µM
[7] = second compound 0.316 µM, first compound 0.00949 µM
[8] = second compound 0.316 µM, first compound 0.03 µM
[9] = second compound 0.316 µM, first compound 0.0949 µM
[10] = second compound 0.316 µM, first compound 0.3 µM
[11] = second compound 0.316 µM, first compound 0.949 µM
[12] = second compound 0.316 µM, first compound 3 µM
[13] = second compound 1 µM, first compound 0.00949 µM
[14] = second compound 1 µM, first compound 0.03 µM
[15] = second compound 1 µM, first compound 0.0949 µM
[16] = second compound 1 µM, first compound 0.3 µM
[17] = second compound 1 µM, first compound 0.949 µM
[18] = second compound 1 µM, first compound 3 µM
[19] = second compound 3.16 µM, first compound 0.00949 µM
[20] = second compound 3.16 µM, first compound 0.03 µM
[21] = second compound 3.16 µM, first compound 0.0949 µM
[22] = second compound 3.16 µM, first compound 0.3 µM
[23] = second compound 3.16 µM, first compound 0.949 µM
[24] = second compound 3.16 µM, first compound 3 µM
[25] = second compound 10 µM, first compound 0.00949 µM
[26] = second compound 10 µM, first compound 0.03 µM
[27] = second compound 10 µM, first compound 0.0949 µM
[28] = second compound 10 µM, first compound 0.3 µM
[29] = second compound 10 µM, first compound 0.949 µM
[30] = second compound 10 µM, first compound 3 µM
[31] = second compound 0.1 µM, first compound 0.0316 µM
[32] = second compound 0.1 µM, first compound 0.1 µM
[33] = second compound 0.1 µM, first compound 0.316 µM
[34] = second compound 0.1 µM, first compound 1 µM
[35] = second compound 0.1 µM, first compound 3.16 µM
[36] = second compound 0.1 µM, first compound 10 µM
[37] = second compound 0.316 µM, first compound 0.0316 µM
[38] = second compound 0.316 µM, first compound 0.1 µM
[39] = second compound 0.316 µM, first compound 0.316 µM
[40] = second compound 0.316 µM, first compound 1 µM
[41] = second compound 0.316 µM, first compound 3.16 µM
[42] = second compound 0.316 µM, first compound 10 µM
[43] = second compound 1 µM, first compound 0.0316 µM
[44] = second compound 1 µM, first compound 0.1 µM
[45] = second compound 1 µM, first compound 0.316 µM
[46] = second compound 1 µM, first compound 1 µM
[47] = second compound 1 µM, first compound 3.16 µM
[48] = second compound 1 µM, first compound 10 µM
[49] = second compound 3.16 µM, first compound 0.0316 µM
[50] = second compound 3.16 µM, first compound 0.1 µM
[51] = second compound 3.16 µM, first compound 0.316 µM
[52] = second compound 3.16 µM, first compound 1 µM
[53] = second compound 3.16 µM, first compound 3.16 µM
[54] = second compound 3.16 µM, first compound 10 µM
[55] = second compound 10 µM, first compound 0.0316 µM
[56] = second compound 10 µM, first compound 0.1 µM
[57] = second compound 10 µM, first compound 0.316 µM
[58] = second compound 10 µM, first compound 1 µM
[59] = second compound 10 µM, first compound 3.16 µM
[60] = second compound 10 µM, first compound 10 µM
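Further: luminescence taken as a proxy for viable cell amount.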
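Wherever viability, T/C is given: percent of DMSO vehicle control where 100% means growth equal to vehicle.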

With `O=C(C=Cn1cnc(-c2cc(C(F)(F)F)cc(C(F)(F)F)c2)n1)NNc1cnccn1` + Cc1cncc(-c2nc(NCCc3c[nH]c4ccccc34)c3ncn(C(C)C)c3n2)c1 the IC50 (second compound 0.1 µM) was 0.116 µM, the IC50 (second compound 0.316 µM) was 0.115 µM and the IC50 (second compound 1 µM) was 0.0991 µM. For the same compound, the IC50 (second compound 3.16 µM) was 0.0249 µM, the IC50 (second compound 10 µM) was < 0.00949 µM and the viability, T/C [1] was 87.9%. For the same compound, the viability, T/C [2] was 70.4%, the viability, T/C [3] was 49.8% and the viability, T/C [4] was 40%. It also gave a viability, T/C [5] of 37.4%, a viability, T/C [6] of 27.9% and a viability, T/C [7] of 82.4%. It also gave a viability, T/C [8] of 69.7%, a viability, T/C [9] of 51.8% and a viability, T/C [10] of 36.2%. For the same compound, the viability, T/C [11] was 37.4%, the viability, T/C [12] was 25% and the viability, T/C [13] was 82.6%. For the same compound, the viability, T/C [14] was 70.9%, the viability, T/C [15] was 48.8% and the viability, T/C [16] was 38.2%. It also gave a viability, T/C [17] of 29.2%, a viability, T/C [18] of 27.9% and a viability, T/C [19] of 62.3%. The viability, T/C [20] was 47.4%, the viability, T/C [21] was 34.3% and the viability, T/C [22] was 26%. The viability, T/C [23] was 26.3%, the viability, T/C [24] was 24.9% and the viability, T/C [25] was 1.57%. The viability, T/C [26] was 1.26%, the viability, T/C [27] was 1.76% and the viability, T/C [28] was 2.84%. For the same compound, the viability, T/C [29] was 2.94% and the viability, T/C [30] was 4.72%.
With `COc1cccc2c1C(=O)c1c(O)c3c(c(O)c1C2=O)CC(O)(C(=O)CO)CC3OC1CC(N)C(O)C(C)O1` (stereo not given) + CC(CO)NC(=O)c1cc(-c2ccc(Cl)cc2)nn(-c2cnn(C)c2)c1=O the IC50 (second compound 0.1 µM) was 0.77 µM, the IC50 (second compound 0.316 µM) was 0.523 µM and the IC50 (second compound 1 µM) was 0.547 µM. The IC50 (second compound 3.16 µM) was 0.459 µM, the IC50 (second compound 10 µM) was 0.36 µM and the viability, T/C [31] was 82.7%. It also gave a viability, T/C [32] of 80.6%, a viability, T/C [33] of 72.2% and a viability, T/C [34] of 43%. For the same compound, the viability, T/C [35] was 14.2%, the viability, T/C [36] was 1.2% and the viability, T/C [37] was 84.3%. It also gave a viability, T/C [38] of 84.2%, a viability, T/C [39] of 58.4% and a viability, T/C [40] of 36%. The viability, T/C [41] was 12.7%, the viability, T/C [42] was 0.83% and the viability, T/C [43] was 86.7%. It also gave a viability, T/C [44] of 89.6%, a viability, T/C [45] of 61.6% and a viability, T/C [46] of 34.7%. The viability, T/C [47] was 10%, the viability, T/C [48] was 0.76% and the viability, T/C [49] was 82.7%. For the same compound, the viability, T/C [50] was 84.8%, the viability, T/C [51] was 59.3% and the viability, T/C [52] was 27.4%. It also gave a viability, T/C [53] of 4.74%, a viability, T/C [54] of 1.92% and a viability, T/C [55] of 71.3%. It also gave a viability, T/C [56] of 73.8%, a viability, T/C [57] of 54.1% and a viability, T/C [58] of 13.9%. For the same compound, the viability, T/C [59] was 0.65% and the viability, T/C [60] was 0.96%.
With `CCN(c1cc(-c2ccc(CN3CCOCC3)cc2)cc(C(=O)NCc2c(C)cc(C)[nH]c2=O)c1C)C1CCOCC1` + CC(CO)NC(=O)c1cc(-c2ccc(Cl)cc2)nn(-c2cnn(C)c2)c1=O the IC50 (second compound 0.1 µM) was > 3 µM, the IC50 (second compound 0.316 µM) was > 3 µM and the IC50 (second compound 1 µM) was > 3 µM. The IC50 (second compound 3.16 µM) was > 3 µM, the IC50 (second compound 10 µM) was > 3 µM and the viability, T/C [1] was 98.2%. It also gave a viability, T/C [2] of 100%, a viability, T/C [3] of 93.9% and a viability, T/C [4] of 96.1%. It also gave a viability, T/C [5] of 95.7%, a viability, T/C [6] of 94.6% and a viability, T/C [7] of 105%. The viability, T/C [8] was 112%, the viability, T/C [9] was 101% and the viability, T/C [10] was 92.9%. The viability, T/C [11] was 114%, the viability, T/C [12] was 105% and the viability, T/C [13] was 91.1%. It also gave a viability, T/C [14] of 95.7%, a viability, T/C [15] of 99% and a viability, T/C [16] of 90%. For the same compound, the viability, T/C [17] was 92.9%, the viability, T/C [18] was 103% and the viability, T/C [19] was 85.1%. The viability, T/C [20] was 95.3%, the viability, T/C [21] was 96.7% and the viability, T/C [22] was 81.2%. The viability, T/C [23] was 84.8%, the viability, T/C [24] was 102% and the viability, T/C [25] was 86%. For the same compound, the viability, T/C [26] was 97.1%, the viability, T/C [27] was 94.2% and the viability, T/C [28] was 93.8%. For the same compound, the viability, T/C [29] was 78.3% and the viability, T/C [30] was 96.3%.
In the case of `CC(C)c1c(-c2ccccc2)nc2c(C#N)c[nH]n2c1=O` + CC(CO)NC(=O)c1cc(-c2ccc(Cl)cc2)nn(-c2cnn(C)c2)c1=O, the IC50 (second compound 0.1 µM) is reported as > 10 µM, the IC50 (second compound 0.316 µM) is reported as > 10 µM and the IC50 (second compound 1 µM) is reported as > 10 µM. The IC50 (second compound 3.16 µM) was > 10 µM, the IC50 (second compound 10 µM) was > 10 µM and the viability, T/C [31] was 94.2%. It also gave a viability, T/C [32] of 96.5%, a viability, T/C [33] of 87.5% and a viability, T/C [34] of 86.1%. For the same compound, the viability, T/C [35] was 87.3%, the viability, T/C [36] was 80.8% and the viability, T/C [37] was 88.2%. For the same compound, the viability, T/C [38] was 95.5%, the viability, T/C [39] was 100% and the viability, T/C [40] was 78.9%. For the same compound, the viability, T/C [41] was 84.1%, the viability, T/C [42] was 78.5% and the viability, T/C [43] was 82%. The viability, T/C [44] was 88.7%, the viability, T/C [45] was 83.8% and the viability, T/C [46] was 87.3%. The viability, T/C [47] was 83.4%, the viability, T/C [48] was 82% and the viability, T/C [49] was 70.3%. It also gave a viability, T/C [50] of 96.7%, a viability, T/C [51] of 73.3% and a viability, T/C [52] of 69%. It also gave a viability, T/C [53] of 85%, a viability, T/C [54] of 78.1% and a viability, T/C [55] of 73%. The viability, T/C [56] was 76.5%, the viability, T/C [57] was 66.2% and the viability, T/C [58] was 69.2%. It also gave a viability, T/C [59] of 67.4% and a viability, T/C [60] of 69.4%.
